In brackets after ≈: the same amount, converted by molar mass.
Legend:
[1] = system: Staphylococcus aureus Rose ATCC 14154; experiment: in vitro MIC, standard agar dilution procedure; format: cell-based; conditions: for MIC: ATCC14154, read-out: Minimal Inhibitory Concentration
[2] = system: Salmonella typhosa ATCC 6539; experiment: in vitro MIC, standard agar dilution procedure; format: cell-based; conditions: for MIC: Salmonella enterica, read-out: Minimal Inhibitory Concentration; for Minimal Inhibitory Concentration: Salmonella typhosa ATCC 6539, agar dilution
[3] = system: Salmonella gallinarum 605; experiment: in vitro MIC, standard agar dilution procedure; format: cell-based; conditions: for MIC: Salmonella enterica, read-out: Minimal Inhibitory Concentration
[4] = system: Bacillus subtilis No. 18 Stansly R-76; experiment: in vitro MIC, standard agar dilution procedure; format: cell-based; conditions: for MIC: read-out: Minimal Inhibitory Concentration
[5] = system: Sarcina lutea ATCC 9341; experiment: in vitro MIC, standard agar dilution procedure; format: cell-based; conditions: for MIC: Micrococcus luteus, ATCC9341, read-out: Minimal Inhibitory Concentration
[6] = system: Klebsiella pneumoniae AD; experiment: in vitro MIC, standard agar dilution procedure; format: cell-based; conditions: for MIC: read-out: Minimal Inhibitory Concentration
[7] = system: Escherichia coli No. 29; experiment: in vitro MIC, standard agar dilution procedure; format: cell-based; conditions: for MIC: read-out: Minimal Inhibitory Concentration
[8] = system: Enterobacter aerogenes 75; experiment: in vitro MIC, standard agar dilution procedure; format: cell-based; conditions: for MIC: Klebsiella aerogenes, read-out: Minimal Inhibitory Concentration
[9] = system: Staphylococcus aureus Smith ATCC 13709; experiment: in vitro MIC, standard agar dilution procedure; format: cell-based; conditions: for MIC: ATCC13709, read-out: Minimal Inhibitory Concentration
[10] = system: Escherichia coli U-311; experiment: in vitro MIC, standard agar dilution procedure; format: cell-based; conditions: for MIC: U311, read-out: Minimal Inhibitory Concentration
[11] = system: Staphylococcus aureus 4050B122-3; experiment: in vitro MIC, standard agar dilution procedure; format: cell-based; conditions: for MIC: 4050B1223, read-out: Minimal Inhibitory Concentration
[12] = system: Corynebacterium xerosis NRRL B-1397; experiment: in vitro MIC, standard agar dilution procedure; format: cell-based; conditions: for MIC: NRRLB1397, read-out: Minimal Inhibitory Concentration
[13] = system: Proteus morganii ATCC 8019; experiment: in vitro MIC, standard agar dilution procedure; format: cell-based; conditions: for MIC: Morganella morganii, ATCC8019, read-out: Minimal Inhibitory Concentration
[14] = system: Shigella shiga; experiment: microbe, parasite or virus in culture; format: cell-based; conditions: for MIC: Shigella, read-out: Minimal Inhibitory Concentration; for Minimal Inhibitory Concentration: Shigella shiga, agar dilution
[15] = system: Proteus vulgaris ATCC 9484; experiment: in vitro MIC, standard agar dilution procedure; format: cell-based; conditions: for MIC: ATCC9484, read-out: Minimal Inhibitory Concentration
[16] = system: Proteus mirabilis ATCC 4671; experiment: in vitro MIC, standard agar dilution procedure; format: cell-based; conditions: for MIC: ATCC4671, read-out: Minimal Inhibitory Concentration
[17] = system: Streptococcus faecalis GK; experiment: in vitro MIC, standard agar dilution procedure; format: cell-based; conditions: for MIC: Enterococcus faecalis, read-out: Minimal Inhibitory Concentration
[18] = system: Bacillus cereus ATCC 9634; experiment: in vitro MIC, standard agar dilution procedure; format: cell-based; conditions: for MIC: ATCC9634, read-out: Minimal Inhibitory Concentration
[19] = system: Bacillus subtilis No. 17 Stansly R-78; experiment: in vitro MIC, standard agar dilution procedure; format: cell-based; conditions: for MIC: read-out: Minimal Inhibitory Concentration
[20] = system: Mycobacterium smegmatis ATCC 607; experiment: in vitro MIC, standard agar dilution procedure; format: cell-based; conditions: for MIC: Mycolicibacterium smegmatis, ATCC607, read-out: Minimal Inhibitory Concentration
[21] = system: Pseudomonas aeruginosa ATCC 10145; experiment: in vitro MIC, standard agar dilution procedure; format: cell-based; conditions: for MIC: ATCC10145, read-out: Minimal Inhibitory Concentration
[22] = system: Pseudomonas aeruginosa 1A7; experiment: in vitro MIC, standard agar dilution procedure; format: cell-based; conditions: for MIC: read-out: Minimal Inhibitory Concentration
[23] = system: a variety of organisms; experiment: in vivo antibacterial activity (general statement); conditions: in words
[24] = system: Escherichia coli US311; experiment: control of systemic lethal infection in mice, single subcutaneous dose; format: in vivo, mice (Carworth Farms CF-1)
Method: (§1) These new substances show high in vivo antibacterial activity in mice against Proteus mirabilis ATCC 4671, Klebsiella pneumoniae AD, and Escherichia coli US311 when administered by a single subcutaneous dose to groups of Carworth Farms CF-1 mice, weight about 20 gm., infected intraperitoneally with a lethal dose of these bacteria in 10^-^1.6 , 10^-^4 and 10^-^3 trypticase soy broth TSP dilutions, respectively, of a 5 hour TSP blood culture.
(§2) Table VII, below, illustrates the in vivo antibacterial activity of BM123α, BM123β, and BM123γ against these three bacteria.

[25] = system: Klebsiella pneumoniae AD; experiment: as above; format: in vivo, mice (Carworth Farms CF-1)
Method: as §1, §2

[26] = system: Proteus mirabilis ATCC 4671; experiment: as above; format: in vivo, mice (Carworth Farms CF-1)
Method: as §1, §2

[27] = system: Bacillus globigii; experiment: in vitro MIC, standard agar dilution procedure; format: cell-based
[28] = single subcutaneous dose 32 mg./kg.
[29] = single subcutaneous dose 128 mg./kg.
[30] = single subcutaneous dose 512 mg./kg.

## CC1OC(Oc2ccc(/C=C/C(=O)NCCCNCCCCN)cc2)C(NC(=N)N)C(O)C1NC(=O)NC1OCC(OC2OCC(O)C3NC(=O)N(C(N)=O)C23)C(O)C1NC(N)=O (single isomer, unassigned) [BM123γ1]
[1]
  MIC: 0.25 µg/mL (≈ 0.28 µM)
[2]
  MIC: 0.05 µg/mL (≈ 0.0559 µM)
[3]
  MIC: 0.1 µg/mL (≈ 0.112 µM)
[4]
  MIC: 0.25 µg/mL (≈ 0.28 µM)
[5]
  MIC: 0.5 µg/mL (≈ 0.559 µM)
[6]
  MIC: 0.05 µg/mL (≈ 0.0559 µM)
[7]
  MIC: 0.05 µg/mL (≈ 0.0559 µM)
[8]
  MIC: 0.1 µg/mL (≈ 0.112 µM)
[9]
  MIC: 0.1 µg/mL (≈ 0.112 µM)
[10]
  MIC: 0.1 µg/mL (≈ 0.112 µM)
[11]
  MIC: 0.25 µg/mL (≈ 0.28 µM)
[12]
  MIC: 0.25 µg/mL (≈ 0.28 µM)
[13]
  MIC: 0.1 µg/mL (≈ 0.112 µM)
[14]
  MIC: 0.25 µg/mL (≈ 0.28 µM)
[15]
  MIC: 0.1 µg/mL (≈ 0.112 µM)
[16]
  MIC: 0.25 µg/mL (≈ 0.28 µM)
[17]
  MIC: 2.5 µg/mL (≈ 2.8 µM)
[18]
  MIC: 0.25 µg/mL (≈ 0.28 µM)
[19]
  MIC: 0.1 µg/mL (≈ 0.112 µM)
[20]
  MIC: 0.1 µg/mL (≈ 0.112 µM)
[21]
  MIC: 2.5 µg/mL (≈ 2.8 µM)
[22]
  MIC: 5 µg/mL (≈ 5.59 µM)

## CC1OC(Oc2ccc(/C=C/C(=O)NCCCNCCCCN)cc2)C(NC(=N)N)C(O)C1NC(=O)NC1OCC(OC2OCC3OC(=O)NC3C2NC(N)=O)C(O)C1NC(N)=O (single isomer, unassigned) [BM123γ2]
[1]
  MIC: 0.25 µg/mL (≈ 0.28 µM)
[2]
  MIC: 0.05 µg/mL (≈ 0.0559 µM)
[3]
  MIC: 0.1 µg/mL (≈ 0.112 µM)
[4]
  MIC: 0.25 µg/mL (≈ 0.28 µM)
[5]
  MIC: 1 µg/mL (≈ 1.12 µM)
[6]
  MIC: 0.05 µg/mL (≈ 0.0559 µM)
[7]
  MIC: 0.1 µg/mL (≈ 0.112 µM)
[8]
  MIC: 0.1 µg/mL (≈ 0.112 µM)
[9]
  MIC: 0.25 µg/mL (≈ 0.28 µM)
[10]
  MIC: 0.1 µg/mL (≈ 0.112 µM)
[11]
  MIC: 0.5 µg/mL (≈ 0.559 µM)
[12]
  MIC: 0.25 µg/mL (≈ 0.28 µM)
[13]
  MIC: 0.1 µg/mL (≈ 0.112 µM)
[14]
  MIC: 0.25 µg/mL (≈ 0.28 µM)
[15]
  MIC: 0.1 µg/mL (≈ 0.112 µM)
[16]
  MIC: 0.25 µg/mL (≈ 0.28 µM)
[17]
  MIC: 2.5 µg/mL (≈ 2.8 µM)
[18]
  MIC: 0.5 µg/mL (≈ 0.559 µM)
[19]
  MIC: 0.1 µg/mL (≈ 0.112 µM)
[20]
  MIC: 0.25 µg/mL (≈ 0.28 µM)
[21]
  MIC: 5 µg/mL (≈ 5.59 µM)
[22]
  MIC: 10 µg/mL (≈ 11.2 µM)

## N=C(N)NCCCC(N)C(=O)NC1C(OC2C(CO)OC(OC3C(O)C(NC(=O)C4CCC(=N)N4)C(O)C(O)C3OC(N)=O)C(O)C2O)OC(CO)C(O)C1O (stereo not drawn) [BM123α]
[1]
  Minimal Inhibitory Concentration: 100 µg/mL
[2]
  Minimal Inhibitory Concentration: 5 µg/mL
[3]
  Minimal Inhibitory Concentration: 5 µg/mL
[4]
  Minimal Inhibitory Concentration: 20 µg/mL
[23]
  in vivo activity against a variety of organisms: active in vivo
[5]
  Minimal Inhibitory Concentration: 50 µg/mL
[6]
  Minimal Inhibitory Concentration: 5 µg/mL
[7]
  Minimal Inhibitory Concentration: 5 µg/mL
[8]
  Minimal Inhibitory Concentration: 10 µg/mL
[9]
  Minimal Inhibitory Concentration: 20 µg/mL
[10]
  Minimal Inhibitory Concentration: 5 µg/mL
[11]
  Minimal Inhibitory Concentration: 100 µg/mL
[12]
  Minimal Inhibitory Concentration: 10 µg/mL
[13]
  Minimal Inhibitory Concentration: 5 µg/mL
[24]; [28]
  Alive/Total Mice Tested, 7 Days After Infection: 1/5
[24]; [29]
  Alive/Total Mice Tested, 7 Days After Infection: 5/5
[24]; [30]
  Alive/Total Mice Tested, 7 Days After Infection: 5/5
[25]; [28]
  Alive/Total Mice Tested, 7 Days After Infection: 0/5
[25]; [29]
  Alive/Total Mice Tested, 7 Days After Infection: 0/5
[25]; [30]
  Alive/Total Mice Tested, 7 Days After Infection: 4/5
[26]; single subcutaneous dose 8 mg./kg.
  Alive/Total Mice Tested, 7 Days After Infection: 0/5
[26]; [28]
  Alive/Total Mice Tested, 7 Days After Infection: 2/5
[26]; [29]
  Alive/Total Mice Tested, 7 Days After Infection: 3/5
[26]; [30]
  Alive/Total Mice Tested, 7 Days After Infection: 5/5
[14]
  Minimal Inhibitory Concentration: 50 µg/mL
[15]
  Minimal Inhibitory Concentration: 5 µg/mL
[16]
  Minimal Inhibitory Concentration: 50 µg/mL
[17]
  Minimal Inhibitory Concentration: > 200 µg/mL
[18]
  Minimal Inhibitory Concentration: 100 µg/mL
[19]
  Minimal Inhibitory Concentration: 10 µg/mL
[27]
  Minimal Inhibitory Concentration: 10 µg/mL
[20]
  Minimal Inhibitory Concentration: 5 µg/mL
[21]
  Minimal Inhibitory Concentration: 200 µg/mL
[22]
  Minimal Inhibitory Concentration: > 200 µg/mL

## CC1OC(Oc2ccc(/C=C/C(=O)NCCCNCCCCN)cc2)C(NC(=N)N)C(O)C1NC(=O)NC1OCC(OC2OCC(O)C(N)C2NC(N)=O)C(O)C1NC(N)=O (stereo not drawn) [BM123β1]
[1]
  Minimal Inhibitory Concentration: 1 µg/mL
[2]
  Minimal Inhibitory Concentration: 0.25 µg/mL
[3]
  Minimal Inhibitory Concentration: 0.5 µg/mL
[4]
  Minimal Inhibitory Concentration: 2.5 µg/mL
[5]
  Minimal Inhibitory Concentration: 2.5 µg/mL
[6]
  Minimal Inhibitory Concentration: 0.25 µg/mL
[7]
  Minimal Inhibitory Concentration: 0.25 µg/mL
[8]
  Minimal Inhibitory Concentration: 0.5 µg/mL
[9]
  Minimal Inhibitory Concentration: 0.5 µg/mL
[10]
  Minimal Inhibitory Concentration: 0.25 µg/mL
[11]
  Minimal Inhibitory Concentration: 2.5 µg/mL
[12]
  Minimal Inhibitory Concentration: 2.5 µg/mL
[13]
  Minimal Inhibitory Concentration: 0.5 µg/mL
[14]
  Minimal Inhibitory Concentration: 2.5 µg/mL
[15]
  Minimal Inhibitory Concentration: 0.25 µg/mL
[16]
  Minimal Inhibitory Concentration: 0.5 µg/mL
[17]
  Minimal Inhibitory Concentration: > 100 µg/mL
[18]
  Minimal Inhibitory Concentration: 2.5 µg/mL
[19]
  Minimal Inhibitory Concentration: 0.25 µg/mL
[27]
  Minimal Inhibitory Concentration: 0.25 µg/mL
[20]
  Minimal Inhibitory Concentration: 2.5 µg/mL
[21]
  Minimal Inhibitory Concentration: 25 µg/mL
[22]
  Minimal Inhibitory Concentration: 100 µg/mL

## Gentamicin sulfate [reference compound]
[1]
  Minimal Inhibitory Concentration: 0.1 µg/mL
[2]
  Minimal Inhibitory Concentration: 0.1 µg/mL
[3]
  Minimal Inhibitory Concentration: 0.05 µg/mL
[4]
  Minimal Inhibitory Concentration: 0.1 µg/mL
[5]
  Minimal Inhibitory Concentration: 0.25 µg/mL
[6]
  Minimal Inhibitory Concentration: 0.05 µg/mL
[7]
  Minimal Inhibitory Concentration: 0.05 µg/mL
[8]
  Minimal Inhibitory Concentration: 0.1 µg/mL
[9]
  Minimal Inhibitory Concentration: 0.05 µg/mL
[10]
  Minimal Inhibitory Concentration: 0.05 µg/mL
[11]
  Minimal Inhibitory Concentration: 0.25 µg/mL
[12]
  Minimal Inhibitory Concentration: 0.025 µg/mL
[13]
  Minimal Inhibitory Concentration: 0.1 µg/mL
[14]
  Minimal Inhibitory Concentration: 0.25 µg/mL
[15]
  Minimal Inhibitory Concentration: 0.1 µg/mL
[16]
  Minimal Inhibitory Concentration: 0.25 µg/mL
[17]
  Minimal Inhibitory Concentration: 2.5 µg/mL
[18]
  Minimal Inhibitory Concentration: 0.25 µg/mL
[19]
  Minimal Inhibitory Concentration: 0.025 µg/mL
[27]
  Minimal Inhibitory Concentration: 0.025 µg/mL
[20]
  Minimal Inhibitory Concentration: 0.1 µg/mL
[21]
  Minimal Inhibitory Concentration: 2.5 µg/mL
[22]
  Minimal Inhibitory Concentration: 5 µg/mL

— patent US4007167A, “Antibiotic BM123 and production thereof” (American Cyanamid Company, priority 1975, dated 1977)
